In ChEMBL document CHEMBL6078627, “Epigallocatechin and epigallocatechin-3-gallate are not inhibitors of tyrosinase” (Bioorg Med Chem Lett, 2024):
Activity calls are given as the source filed them. The calls are words filed in the database; no cut-off is given here.

How the values were obtained:
Assay type in all cases: protein assay
[1] = target: T1, Mushroom tyrosinase (Agaricus bisporus) (UniProt O42713+Q00024+C7FF04+C7FF05); test: Inhibition of mushroom Tyrosinase using L-DOPA as substrate assessed as change in absorbance at 50 to 100 uM by spectrophotometric analysis; details: dose 50-100 µM
[2] = target: T1, Mushroom tyrosinase (Agaricus bisporus); test: Inhibition of mushroom Tyrosinase using L-DOPA as substrate assessed as change in absorbance at 50 to 100 uM at 305 nm by spectrophotometric analysis; details: dose 50-100 µM
[3] = target: T1, Mushroom tyrosinase (Agaricus bisporus); test: Inhibition of mushroom Tyrosinase using L-DOPA as substrate assessed as reduction in oxygen consumption
[4] = target: T1, Mushroom tyrosinase (Agaricus bisporus); test: Inhibition of mushroom Tyrosinase using L-DOPA as substrate assessed as reduction in oxygen consumption measured after 10 mins

| Compound | inhibition [1] | inhibition [2] | inhibition [3] | inhibition [4] [%] |
| --- | --- | --- | --- | --- |
| Oc1cc(O)c2c(c1)O[C@H](c1cc(O)c(O)c(O)c1)[C@H](O)C2 | Active | Active | Active |  |
| O=C(O)c1cc(O)c(O)c(O)c1 | Active | Active | Active |  |
| O=C(O[C@@H]1Cc2c(O)cc(O)cc2O[C@@H]1c1cc(O)c(O)c(O)c1)c1cc(O)c(O)c(O)c1 | Active | Active | Active | 10 |
